# Results taken from ChEMBL document CHEMBL1130510, “Synthesis and in vitro cytotoxicity of aminocoumarin platinum(II) complexes” (Bioorg Med Chem Lett, 1997).
# Assays:
# [1] = system: Caco-2; experiment: Compound was tested in vitro for its cytotoxic activity against Caco-2T cells in MTT assay and activity is expressed as IC50; format: functional, cell-based, Homo sapiens
# [2] = system: Caco-2; experiment: Compound was tested in vitro for its cytotoxic activity against Caco-2T cells in MTT assay and activity is expressed as IC80; format: functional, cell-based; conditions: Homo sapiens
Substance,IC50 [1],IC80 [2]
3-Acetamido-6-Aminocoumarin Platinum (II) Complex [listing 1 of 2 here],80 µg/mL,
3-Acetamido-6-Aminocoumarin Platinum (II) Complex [listing 2 of 2 here],,30 µg/mL
6-Aminocoumarin Platinum (II) Complex,,100 µg/mL
7-Amino-4-Methyl-Coumarin Platinum (II) Complex [listing 1 of 2 here],100 µg/mL,
7-Amino-4-Methyl-Coumarin Platinum (II) Complex [listing 2 of 2 here],,30 µg/mL
7-Amino-4-Trifluoromethyl-Coumarin Platinum (II) Complex [listing 1 of 2 here],10 µg/mL,
7-Amino-4-Trifluoromethyl-Coumarin Platinum (II) Complex [listing 2 of 2 here],,5 µg/mL
